Data as given in BindingDB's records for doi:10.1111/j.1747-0285.2007.00488.x (Shanghai Jiao Tong University, 2007).

Target: Vascular endothelial growth factor receptor 2 (Homo sapiens, UniProt P35968)
Test: Kinase Inhibition Assay

Chain of Vascular endothelial growth factor receptor 2 (P35968 whole entry): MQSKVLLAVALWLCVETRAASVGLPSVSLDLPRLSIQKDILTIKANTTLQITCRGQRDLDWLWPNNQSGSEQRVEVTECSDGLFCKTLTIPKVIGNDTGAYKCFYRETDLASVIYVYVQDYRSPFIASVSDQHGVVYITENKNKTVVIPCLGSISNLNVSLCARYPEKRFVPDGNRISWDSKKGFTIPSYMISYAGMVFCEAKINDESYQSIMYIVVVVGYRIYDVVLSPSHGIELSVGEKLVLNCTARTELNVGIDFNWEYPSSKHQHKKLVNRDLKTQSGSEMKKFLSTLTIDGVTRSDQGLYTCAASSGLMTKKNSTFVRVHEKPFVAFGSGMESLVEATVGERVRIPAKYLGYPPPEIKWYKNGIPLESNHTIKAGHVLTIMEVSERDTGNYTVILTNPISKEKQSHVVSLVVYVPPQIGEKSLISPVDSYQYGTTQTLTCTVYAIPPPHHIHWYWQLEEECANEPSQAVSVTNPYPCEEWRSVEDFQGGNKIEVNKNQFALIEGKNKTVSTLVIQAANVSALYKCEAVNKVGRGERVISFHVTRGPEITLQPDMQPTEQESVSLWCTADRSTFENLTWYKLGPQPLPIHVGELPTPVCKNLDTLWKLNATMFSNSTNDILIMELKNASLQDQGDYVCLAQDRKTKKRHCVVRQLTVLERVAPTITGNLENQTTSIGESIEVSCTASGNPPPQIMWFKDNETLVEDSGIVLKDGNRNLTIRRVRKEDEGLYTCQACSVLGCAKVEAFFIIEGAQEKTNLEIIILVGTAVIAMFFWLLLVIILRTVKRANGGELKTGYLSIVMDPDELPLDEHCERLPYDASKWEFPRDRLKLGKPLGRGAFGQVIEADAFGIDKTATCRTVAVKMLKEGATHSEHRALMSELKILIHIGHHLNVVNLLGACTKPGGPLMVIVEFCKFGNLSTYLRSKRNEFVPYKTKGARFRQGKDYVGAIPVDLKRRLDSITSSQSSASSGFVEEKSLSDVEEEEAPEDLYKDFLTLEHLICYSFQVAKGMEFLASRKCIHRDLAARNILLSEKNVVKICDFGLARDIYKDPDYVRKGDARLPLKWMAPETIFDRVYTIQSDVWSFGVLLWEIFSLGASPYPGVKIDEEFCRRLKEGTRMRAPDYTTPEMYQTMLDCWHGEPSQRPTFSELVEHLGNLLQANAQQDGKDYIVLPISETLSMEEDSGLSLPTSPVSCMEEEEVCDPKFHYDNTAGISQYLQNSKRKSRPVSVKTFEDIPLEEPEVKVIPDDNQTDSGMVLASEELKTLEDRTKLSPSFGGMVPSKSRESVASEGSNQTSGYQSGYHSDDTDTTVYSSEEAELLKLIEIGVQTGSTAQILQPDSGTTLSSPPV

IC50: 18 nM
Compound: NC[C@@H]1O[C@H](O[C@H]2[C@@H](O)[C@H](O[C@@H]3[C@@H](O)[C@H](N)C[C@H](N)[C@H]3O[C@H]3O[C@H](CN)[C@@H](O)[C@H](O)[C@H]3N)O[C@@H]2CO)[C@H](N)[C@@H](O)[C@@H]1O [KDR Kinase Inhibitor, 3]
